These results are taken from patent publication US20090185973A1, “METHODS, COMPOSITIONS, UNIT DOSAGE FORMS, AND KITS FOR PHARMACOLOGIC STRESS TESTING WITH REDUCED SIDE EFFECTS” (ADENOBIO N.V., priority 2008, published 2009).

The target of one data set is A2a receptor (Homo sapiens, UniProt P29274). The settings on record: in vivo; cited from earlier work.
Another data set has as its system patients. In kind it is in vivo, human. The settings on record: for PV Max, individual patients / MV Max, individual patients / MV Min, individual patients / PV Min, individual patients: listed as DIP.
Data set [1] deals with patients with normal coronary reserve. Kind of data set: Priming dose effect: time to peak and return to baseline, concurrent administration (Example 4). Format: in vivo, human. From the text: As a test, a low priming dose of dipyridamole was combined with the concurrent administration of the two drugs to determine whether the time to peak and the occurrence of near maximal hyperaemia could be accelerated, especially when infusion time is reduced by, for example, one minute.

The test system of data set [2] is patients suffering from ischemic heart disease. Nature of the data set: Transthoracic doppler echocardiography (TTDE) blood flow velocity in LAD, sequential administration (Example 1). Format: in vivo, human. The conditions noted are these: lower doses of dipyridamole (10, 14 and 18 μg/kg). As for the experimental part: In the combined administration, each of the two agents was administered at a dosage lower than its clinically preferred dosage when used as a single agent for myocardial perfusion imaging. Effects were measured using noninvasive transthoracic doppler echocardiography (TTDE).
Primary efficacy end-points were peak and mean diastolic flow velocities (measured as reflecting coronary blood flow values). The secondary end-point was patient tolerance to the procedure. The protocol was designed as follows.
Forty (40) consecutive patients suffering from ischemic heart disease were enrolled. Each patient served as their own control.
[…] Total doses are between about 4-6% of the lowest single-agent total dose of dipyridamole (i.e., 0.56 mg/kg, infused over a total of 4 minutes).
This dose is half the standard single-agent dosage rate of 140 μg/kg/min.

For data set [3] the following is noted: cited from earlier work.
In a further data set the test system is guinea-pig. The conditions noted are these: pretreatment dipyridamole 0.025 mg (n = 5); after 14C-adenosine IV injection; mean; cited from earlier work.
Where [4] appears, read: DIP dose 28 μg/kg, ADE 140 μg/kg/min.
Setting [5] is: DIP dose 35 μg/kg, ADE 140 μg/kg/min.
[6] abbreviates: DIP dose 40 μg/kg, ADE 140 μg/kg/min.

Where “and” joins values, the source holds several entries; their conditions need not be identical. Equal entries are not always repeated. Where two headings read alike, the source gives them in different places.

A2a receptor, sequence (P29274 whole entry): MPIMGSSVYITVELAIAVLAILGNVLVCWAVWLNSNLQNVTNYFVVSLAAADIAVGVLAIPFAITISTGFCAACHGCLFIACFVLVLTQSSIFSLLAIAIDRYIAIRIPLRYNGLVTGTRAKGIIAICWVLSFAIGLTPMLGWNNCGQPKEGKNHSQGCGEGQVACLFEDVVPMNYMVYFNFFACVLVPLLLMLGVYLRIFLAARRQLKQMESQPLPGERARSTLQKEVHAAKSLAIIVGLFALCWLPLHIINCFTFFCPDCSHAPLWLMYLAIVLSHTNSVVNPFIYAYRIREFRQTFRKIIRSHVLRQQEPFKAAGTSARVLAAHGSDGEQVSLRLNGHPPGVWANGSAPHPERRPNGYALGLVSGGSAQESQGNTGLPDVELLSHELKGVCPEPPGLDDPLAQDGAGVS

Regarding `Nc1nc(N/N=C/C2CCCCC2)nc2c1ncn2[C@@H]1O[C@H](CO)[C@@H](O)[C@H]1O` [binodenoson], the Duration of action at A2a receptor is 10 ± 6 min.
Consider `OCCN(CCO)c1nc(N2CCCCC2)c2nc(N(CCO)CCO)nc(N3CCCCC3)c2n1` [dipyridamole], for which the “PV Max, individual patient” value in the data set with patients (DIP dose 28 μg/kg bolus alone, ADE 140 μg/kg/min 3 min) is 26 cm/sec. In the data set with patients (setting [4]), the “MV Max, individual patient” value is 21 cm/s; the “MV Min, individual patient” value was determined as 19 cm/s; the “PV Min, individual patient” value is 23 cm/sec. Further, the “PV Max, individual patients” value with patients (DIP dose 35 μg/kg bolus alone, ADE 140 μg/kg/min 3 min) is 23 cm/sec and 40 cm/sec. In addition, in the data set with patients (setting [5]), the “MV Max, individual patients” value is 20 cm/s and 28 cm/s; the “MV Min, individual patients” value is 18 cm/s and 22 cm/s; the “PV Min, individual patients” value was 21 cm/sec and 30 cm/sec. Further, the “PV Max, individual patients” value in the data set on patients (DIP dose 40 μg/kg bolus alone, ADE 140 μg/kg/min 3 min) was 35 cm/sec and 40 cm/sec. Moreover, in the data set on patients (setting [6]), the “MV Max, individual patients” value was 25 cm/s and 29 cm/s; the “MV Min, individual patients” value is 23 cm/s and 24 cm/s; the “PV Min, individual patients” value is 33 cm/sec and 34 cm/sec. Also, the “Effect on peak and mean diastolic velocities” value in the data set with patients (dipyridamole alone, bolus 28, 35 or 40 μg/kg) was “did not modify”. In addition, the “Symptoms recorded during a follow-up of 10 minutes” value in the data set on patients (in vivo) is “No symptoms”. The “Effect of priming dose on time to peak” value in data set [1] (dipyridamole priming dose 0.05 mg, 3 patients) is listed as “did not modify”. Besides, the “Effect of priming dose on time to peak” value in data set [1] (dipyridamole priming dose 0.1 mg) was “did modify”. For the same compound, in data set [1] (dipyridamole priming dose 0.3 mg, 3 patients), the “Effect of priming dose on time to peak” value is on record as “did not perform better than 0.1 mg”. In addition, in data set [2], the “Effect in preliminary dose ranging studies” value is listed as “no effect”. Also, the Solubility in saline result in data set [3] (saline) is recorded as “poorly soluble”. For the same compound, the “Stability in the long term” value in data set [3] (solvents at pH>4) is reported as “unstable”. In the data set on guinea-pig, the “14C distribution, Heart” value is 2.1 ± 1.01 percentage of ^14C administered and the “14C distribution, Lungs” value is listed as 71.4 ± 4.9 (p < 0.05) percentage of ^14C administered.
